Results taken from ChEMBL document CHEMBL5131538 (J Med Chem, 2022).

Tests used:
Rattus norvegicus = test: Organ protective activity in aldosterone-induced uninephrectomized Sprague-Dawley rat model assessed as renal tubular regeneration in kidney by measuring pathological lesion score at 3 mg/kg/day by PAS and H and E staining based histological analysis (reference value: 1.7 +/- 0.5); assay type: functional
[1] = Volume of distribution at steady state in Sprague-Dawley rat at 1 mg/kg, iv; assay type: ADME, organism-based; settings: in vivo, read-out: Vdss

Vd [1]: 1.08 L/kg
Structure (SMILES): CC1(C)Oc2cc(NS(C)(=O)=O)ccc2N(c2ccc(F)cc2)C1=O [MT-3995]
Activity (Rattus norvegicus): 0.3
